Counter-ions that a name gives are not always drawn.
Target: T1, Brd4 bromodomain 1 (BRD4(1)) (Homo sapiens, UniProt O60885)
T1 construct: Illustrative results with the first bromodomain of Brd4; made in house; host or cells: E. coli BL21 (DE3)
Assay: Inhibition of tetra-acetylated histone H4 binding to Brd4 bromodomain 1 (TR-FRET)
Set-up: key: Active: Compounds with an IC50 value less than 30 μM were deemed to be active.; Not Active: Compounds with an IC50 value less than 30 μM were deemed to be active
Conditions: tetra-acetylated histone H4 peptide, active = IC50 <30 μM
Experimental: Proteins were cloned and overexpressed with a N-terminal 6×His tag, then purified by nickel affinity followed by size exclusion chromatography. Briefly, E. coli BL21 (DE3) cells were transformed with a recombinant expression vector encoding N-terminally Nickel affinity tagged bromodomains from Brd2, Brd3, Brd4. Cell cultures were incubated at 37° C. with shaking to the appropriate density and induced overnight with IPTG. The supernatant of lysed cells was loaded onto Ni-IDA column for purification. Eluted protein is pooled, concentrated and further purified by size exclusion chromatography. Fractions representing monomeric protein were pooled, concentrated, aliquoted, and frozen at −80° C. for use in subsequent experiments.
Binding of tetra-acetylated histone H4 and BET bromodomains was confirmed by a Time Resolved Fluorescence Resonance Energy Transfer (TR-FRET) method. N-terminally His-tagged bromodomains (200 nM) and biotinylated tetra-acetylated histone H4 peptide (25-50 nM, Millipore) were incubated in the presence of Europium Cryptate-labeled streptavidin (Cisbio Cat. #610SAKLB) and XL665-labeled monoclonal anti-His antibody (Cisbio Cat. #61HISXLB) in a white 96 well microtiter plate (Greiner). For inhibition assays, serially diluted test compound was added to these reactions in a 0.2% final concentration of DMSO. Final buffer concentrations were 30 mM HEPES pH 7.4, 30 mM NaCl, 0.3 mM CHAPS, 20 mM phosphate pH 7.0, 320 mM KF, 0.08% BSA). After a 2-h incubation at room temperature, the fluorescence by FRET was measured at 665 and 620 nm by a SynergyH4 plate reader (Biotek). Illustrative results with the first bromodomain of Brd4 and the second bromodomain of Brd2 are shown below. The binding inhibitory activity was shown by a decrease in 665 nm fluorescence relative to 620 nm. IC50 values were determined from a dose response curve.

SMILES | FRET activity (IC50 <30 μM) BRD4(1)
Cc1noc(C(=O)O)c1-c1ccc(=O)n(Cc2ccc(Cl)cc2)c1 [Example 260, 4-(1-(4-chlorobenzyl)-6-oxo-1,6-dihydropyridin-3-yl)-3-methylisoxazole-5-carboxylic acid] | Not Active
Cc1noc(C)c1-c1cc(Nc2cccnc2)c(=O)n(Cc2ccccc2)n1 [Example 248, 2-benzyl-6-(3,5-dimethylisoxazol-4-yl)-4-(pyridin-3-ylamino)pyridazin-3(2H)-one] | Active
Cc1noc(C)c1-c1cc(Nc2ccc(F)cc2)c(=O)n(Cc2ccccc2)c1 [Example 156, 1-Benzyl-5-(3,5-dimethylisoxazol-4-yl)-3-((4-fluorophenyl)amino)pyridin-2(1H)-one] | Active
Cc1noc(C)c1CNc1ccc(=O)n(Cc2ccccc2)n1 [Example 201, 2-Benzyl-6-(((3,5-dimethylisoxazol-4-yl)methyl)amino)pyridazin-3(2H)-one] | Not Active
Cc1onc(CO)c1-c1ccc(=O)n(Cc2ccc(Cl)cc2)c1 [Example 159, 1-(4-Chlorobenzyl)-5-(3-(hydroxymethyl)-5-methylisoxazol-4-yl)pyridin-2(1H)-one] | Active
CC(c1ccccc1)n1nc(-c2ccc(O)cc2)ccc1=O (stereo not shown) [Example 178, 6-(4-hydroxyphenyl)-2-(1-phenylethyl)pyridazin-3(2H)-one] | Active
Cc1noc(C)c1-c1cc(N2CCNCC2)c(=O)n(Cc2ccccc2)c1 [Example 161, 1-Benzyl-5-(3,5-dimethylisoxazol-4-yl)-3-(piperazin-1-yl)pyridin-2(1H)-one Hydrochloride] | Not Active
CNC(=O)c1onc(C)c1-c1ccc(=O)n(Cc2ccc(Cl)cc2)c1 [Example 265, 4-(1-(4-chlorobenzyl)-6-oxo-1,6-dihydropyridin-3-yl)-N,3-dimethylisoxazole-5-carboxamide] | Not Active
Cc1noc(C)c1-c1cc(NC2CCNC2)c(=O)n(Cc2ccccc2)c1 (stereo not shown) [Example 239, 1-benzyl-5-(3,5-dimethylisoxazol-4-yl)-3-(pyrrolidin-3-ylamino)pyridin-2(1H)-one] | Active
Cc1noc(C)c1-c1cc(Nc2ccc(C#N)nc2)c(=O)n(Cc2ccccc2)c1 [Example 232, 5-((1-benzyl-5-(3,5-dimethylisoxazol-4-yl)-2-oxo-1,2-dihydropyridin-3-yl)amino)picolinonitrile] | Active
Cc1ccc(Nc2cc(-c3c(C)noc3C)cn(Cc3ccccc3)c2=O)cn1 [Example 245, 1-benzyl-5-(3,5-dimethylisoxazol-4-yl)-3-((6-methylpyridin-3-yl)amino)pyridin-2(1H)-one] | Active
COc1cc(=O)n(Cc2ccccc2)cc1-c1c(C)noc1C [Example 154, 1-Benzyl-5-(3,5-dimethylisoxazol-4-yl)-4-methoxypyridin-2(1H)-one] | Active
Cc1nnc(C)n1-c1ccc(=O)n(Cc2ccc(Cl)cc2)c1 [Example 197, 1-(4-chlorobenzyl)-5-(3,5-dimethyl-4H-1,2,4-triazol-4-yl)pyridin-2(1H)-one] | Not Active
COc1ccc(Nc2cc(-c3c(C)noc3C)cn(Cc3ccccc3)c2=O)cn1 [Example 234, 1-benzyl-5-(3,5-dimethylisoxazol-4-yl)-3-((6-methoxypyridin-3-yl)amino)pyridin-2(1H)-one] | Active
Cc1noc(C)c1-c1cc(N2CCN(C)CC2)c(=O)n(Cc2ccccc2)c1 [Example 153, 1-Benzyl-5-(3,5-dimethylisoxazol-4-yl)-3-(4-methylpiperazin-1-yl)pyridin-2(1H)-one Hydrochloride] | Active
COC(=O)c1onc(C)c1-c1ccc(=O)n(Cc2ccc(Cl)cc2)c1 [Example 259, methyl 4-(1-(4-chlorobenzyl)-6-oxo-1,6-dihydropyridin-3-yl)-3-methylisoxazole-5-carboxylate] | Not Active
Cc1nsc(C)c1-c1ccc(=O)n(Cc2ccccc2)c1 [Example 196, 1-benzyl-5-(3,5-dimethylisothiazol-4-yl)pyridin-2(1H)-one] | Active
Cc1onc(C(N)=O)c1-c1ccc(=O)n(Cc2ccc(Cl)cc2)c1 [Example 202, 4-(1-(4-Chlorobenzyl)-6-oxo-1,6-dihydropyridin-3-yl)-5-methylisoxazole-3-carboxamide] | Active
O=C1CC(c2ccc(=O)n(Cc3ccccc3)c2)CN1 (stereo not shown) [Example 268, 1-Benzyl-5-(5-oxopyrrolidin-3-yl)pyridin-2(1H)-one] | Not Active
CON(C)C(=O)c1noc(C)c1-c1ccc(=O)n(Cc2ccccc2)c1 [Example 249, 4-(1-benzyl-6-oxo-1,6-dihydropyridin-3-yl)-N-methoxy-N,5-dimethylisoxazole-3-carboxamide] | Not Active
COC(=O)c1noc(C)c1-c1ccc(=O)n(Cc2ccc(Cl)cc2)c1 [Example 199, Methyl 4-(1-(4-chlorobenzyl)-6-oxo-1,6-dihydropyridin-3-yl)-5-methylisoxazole-3-carboxylate] | Not Active
Cc1onc(C(=O)O)c1-c1ccc(=O)n(Cc2ccc(Cl)cc2)c1 [Example 225, 4-(1-(4-Chlorobenzyl)-6-oxo-1,6-dihydropyridin-3-yl)-5-methylisoxazole-3-carboxylic acid] | Not Active

Results, then the compound that gave them:

FRET activity (IC50 <30 μM) BRD4(1) | SMILES
Active | Cc1noc(C)c1-c1cc(N)c(=O)n(Cc2ccncc2Cl)c1 [Example 253]
Active | Cc1noc(C)c1-c1cc(N)c(=O)n(Cc2cccc3c2OCO3)c1 [Example 257, 3-amino-1-(benzo[d][1,3]dioxol-4-ylmethyl)-5-(3,5-dimethylisoxazol-4-yl)pyridin-2(1H)-one]
Not Active | Cc1noc(C)c1-c1cc(NS(C)(=O)=O)c(=O)n(Cc2ccccc2)c1 [Example 200, N-(1-Benzyl-5-(3,5-dimethylisoxazol-4-yl)-2-oxo-1,2-dihydropyridin-3-yl)methanesulfonamide]
Not Active | Cc1noc(C)c1-c1cc(CN)c(=O)n(Cc2ccccc2)c1 [Example 266, 3-(Aminomethyl)-1-benzyl-5-(3,5-dimethylisoxazol-4-yl)pyridin-2(1H)-one]
Active | Cc1noc(C)c1-c1cc(C(=O)O)c(=O)n(Cc2ccccc2)c1 [Example 229, 1-Benzyl-5-(3,5-dimethylisoxazol-4-yl)-2-oxo-1,2-dihydropyridine-3-carboxylic acid]
Active | Cc1noc(C)c1-c1cc(-n2ccnc2)c(=O)n(Cc2ccccc2)c1 [Example 204, 1-benzyl-5-(3,5-dimethylisoxazol-4-yl)-3-(1H-imidazol-1-yl)pyridin-2(1H)-one]
Active | Cc1noc(C)c1-c1cc(Nc2cncnc2)c(=O)n(Cc2ccccc2)c1 [Example 236, 1-benzyl-5-(3,5-dimethylisoxazol-4-yl)-3-(pyrimidin-5-ylamino)pyridin-2(1H)-one]
Active | Cc1noc(C)c1-c1cc(Nc2ccncc2)c(=O)n(Cc2ccccc2)c1 [Example 195, 1-benzyl-5-(3,5-dimethylisoxazol-4-yl)-3-(pyridin-4-ylamino)pyridin-2(1H)-one]
Not Active | Cc1noc(C)c1-c1cc(N)c(=O)n(C(C)c2ccc(C#N)cc2)c1 (stereo not shown) [Example 269, 4-(1-(3-amino-5-(3,5-dimethylisoxazol-4-yl)-2-oxopyridin-1(2H)-yl)ethyl)benzonitrile]
Active | Cc1noc(C)c1-c1cc(N)c(=O)n(C)c1 [Example 224, 3-Amino-5-(3,5-dimethylisoxazol-4-yl)-1-methylpyridin-2(1H)-one]
Active | Cc1noc(C)c1-c1cc(Nc2cnccn2)c(=O)n(Cc2ccccc2)c1 [Example 235, 1-benzyl-5-(3,5-dimethylisoxazol-4-yl)-3-(pyrazin-2-ylamino)pyridin-2(1H)-one]
Active | Cc1noc(C)c1-c1cc(NCC(F)(F)F)c(=O)n(Cc2ccc(Cl)cc2)c1 [Example 243, 1-(4-Chlorobenzyl)-5-(3,5-dimethylisoxazol-4-yl)-3-((2,2,2-trifluoroethyl)amino)pyridin-2(1H)-one]
